Measurements taken from ChEMBL document CHEMBL1147259, “The structure of Palau'amide, a potent cytotoxin from a species of the marine cyanobacterium Lyngbya” (J Nat Prod, 2003).

Test system: KB
Assay: Cytotoxicity against human KB cells
Assay type: functional, cell-based

With `C#CCCC[C@@H](O)[C@@H](C)[C@@H]1C/C=C(\C)C(=O)O[C@H](CC(C)C)C(=O)N[C@@H](C)C(=O)N(C)[C@H](Cc2ccccc2)C(=O)N(C)CC(=O)N[C@H]([C@H](C)CC)C(=O)N(C)[C@@H](C)C(=O)O1` [PALAU'AMIDE] the IC50 was 13 nM.
